Test results taken from patent publication US11402382B2, “Diagnostic and therapeutic methods for cancer” (Genentech, Inc., priority 2017, dated 2022).

Columns and labels:
[1] = test system: previously untreated metastatic renal cell carcinoma (mRCC); experiment: IMmotion150 phase 2 randomized trial: efficacy (PFS, ORR per RECIST v1.1, IRF); format: in vivo, human; settings: IRF-assessed
Procedure: A phase II clinical study, IMmotion150 (NCT01984242), was performed to evaluate the safety and tolerability of atezolizumab, alone or in combination with bevacizumab, as compared to sunitinib in patients with previously untreated metastatic renal cell carcinoma (mRCC). Integrated tumor genomic analyses were also performed to correlate molecular biomarkers with observed clinical outcomes in the phase II study.
The primary objective of this phase 2 trial was to evaluate the efficacy of atezolizumab+bevacizumab and atezolizumab monotherapy compared with sunitinib.
The original primary endpoint was PFS per Response Evaluation Criteria In Solid Tumors version 1.1 (RECIST v1.1) via IRF in the ITT population. Although patients were stratified by ≥5% PD-L1 expression on IC, the definition of PD-L1 positivity was revised from ≥5% to ≥1% PD-L1 expression on IC, based on phase 1a data, and the study protocol was amended to create PD-L1 expression on IC as a coprimary endpoint of IRF-assessed PFS. […] Secondary endpoints included investigator (INV)-assessed PFS, ORR, and duration of response (DOR) per RECIST v1.1, overall survival (OS), patient-reported outcomes, and safety. Key exploratory objectives included evaluation of the relationship between the expression of predictive and prognostic exploratory biomarkers and their association with disease status and efficacy as defined by ORR and PFS.
During the study, each cycle was six weeks (42 days) in duration, and data on tumor measurement and survival status were collected for evaluation of PFS, milestone PFS (at 24, 52, and 76 weeks), OS, and ORR per RECIST v1.1. Tumor assessments occurred at baseline and every 12 weeks ±five business days after Cycle 1, Day 1, or more frequently if clinically indicated. Patients who discontinued first-line treatment or crossover treatment were followed up for survival approximately every three months until death, withdrawal of consent, loss to follow-up, or study termination. Patients who discontinued study treatment for reasons other than disease progression (e.g., toxicity) continued to undergo scheduled tumor assessments (every 12 weeks) until death, disease progression per RECIST v1.1, withdrawal of consent, or study termination, whichever occurred first.
Kaplan-Meier methodology was used to estimate the median PFS for each treatment arm, and Kaplan-Meier curves were produced. The primary analysis was triggered when 140 INV-PFS events occurred among patients treated with atezolizumab+bevacizumab and with sunitinib or among patients treated with atezolizumab alone and with sunitinib, whichever occurred later. The HR estimates and their 95% CIs were determined by using the stratified Cox proportional hazards model. The stratification factors included prior nephrectomy, tumor PD-L1 status, and MSKCC score and were determined based on data from the electronic case report form; if such data were missing, data collected by the IxRS at the time of randomization were used. Tumor specimens were prospectively tested for PD-L1 expression on ICs by a central laboratory using the SP142 IHC assay (VENTANA, Tucson, Ariz.). IC staining was defined as follows: any discernible PD-L1 staining of any intensity in IC covering <1% or absent (ICO), between ≥1% and <5% (IC1), between ≥5% and <10% (IC2), or ≥10% (IC3) of tumor area occupied by tumor cells, associated intratumoral, and contiguous peri-tumoral desmoplastic stroma.

[2] = in vivo
Procedure: Study treatment consisted of atezolizumab 1200 mg fixed intravenous dose +bevacizumab 15 mg/kg every three weeks, atezolizumab 1200 mg fixed intravenous dose every three weeks, or sunitinib 50 mg/day orally for four weeks followed by two weeks of rest. On disease progression (as assessed by the investigator per RECIST v1.1), patients randomized to atezolizumab monotherapy or sunitinib had the option to cross over and receive the atezolizumab+bevacizumab combination in some regions (option was not available in Europe). In the absence of unacceptable toxicity, treatment with the combination continued until evidence of progressive disease. Where permitted, patients in the atezolizumab-containing arms could continue to be treated beyond disease progression per RECIST v1.1 until lack of clinical benefit; those in non-European nations could cross over to atezolizumab+bevacizumab therapy at any time after disease progression per RECIST v1.1, provided all eligibility criteria were met.

[3] = PD-L1+ population (≥1% PD-L1 expression on IC)
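Throughout, for Colitis: Open-label multicenter randomized phase 2 trial with three treatment arms, safety set restricted to patients who actually received study drug.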
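Throughout, for Decreased blood cortisol/adrenal insufficiency: Open-label multicenter randomized phase 2 trial with three treatment arms, safety set restricted to patients who actually received study drug.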
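Throughout, for Pneumonitis: Open-label multicenter randomized phase 2 trial with three treatment arms, safety set restricted to patients who actually received study drug.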
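Throughout, for TSH decreased/hypothyroidism: Open-label multicenter randomized phase 2 trial with three treatment arms, safety set restricted to patients who actually received study drug.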

Molecule	complete response (CR) ([1]; ITT population)	median progression-free survival (PFS) ([1]; ITT population)	objective response rate (ORR) ([1]; ITT population)	partial response (PR) ([1]; ITT population)	complete response (CR) ([1]; PD-L1+ patients)	objective response rate (ORR) ([1]; PD-L1+ patients)	partial response (PR) ([1]; PD-L1+ patients)	median progression-free survival (PFS) [1, 3]	Stratified PFS HR (95% CI) vs sunitinib ([1]; ITT population)	Stratified PFS HR (95% CI) vs sunitinib ([1]; PD-L1+ (PD-L1 IHC IC1/2/3, ≥1%))	Stratified PFS HR (95% CI) vs sunitinib ([1]; PD-L1 IHC IC2/3 (≥5%))	Colitis [2]	Decreased blood cortisol/adrenal insufficiency [2]	Pneumonitis [2]	TSH decreased/hypothyroidism [2]	TSH increased/hyperthyroidism [2]	treatment-related AE leading to discontinuation of treatment: demyelination [2]	treatment-related AE leading to discontinuation of treatment: nephritis [2]	treatment-related AE leading to discontinuation of treatment: pancreatitis [2]
CCN(CC)CCNC(=O)c1c(C)[nH]c(/C=C2\C(=O)Nc3ccc(F)cc32)c1C [Sunitinib, N-[2-(Diethylamino)ethyl]-5-[(Z)-(5-fluoro-2-oxo-1,2-dihydro-3H-indol-3-ylidene)methyl]-2,4-dimethyl-1H-pyrrole-3-carboxamide]	5%	8.4 months	29%	24%	7%	27%	20%	7.8 months	–	–	–	–	–	–	–	–	–	–	–
Atezo: anti-PD-L1 antibody atezolizumab (CAS Registry Number: 1422185-06-5), Genentech, also known as MPDL3280A	11%	6.1 months	25%	14%	15%	28%	13%	5.5 months	1.19	1.03	0.64	0 n	0 n	0 n	0 n	0 n	1%	1%	1%
